How the values were obtained:
[1] = molecular target: T1, Insulin (recombinant human insulin) (Homo sapiens, UniProt P01308); experiment: pH stability test of IM16 dendrimer-insulin complexes; type: physicochemical; settings: 0.5 U insulin; pH 5, 6, 7.4, 9, 10; 15 minutes
T1 construct: Despite having its molecular weight (5825 g/mol) and establishing an average of 4 (−) charges; purchased Novo Nordisk Actrapid (trade name; no catalogue number given)
Experimental: The test on the behaviour of the dendrimer-drug complexes previously formed on varying the medium's pH was again performed by evaluating the delay in polyacrylamide gel of the dendrimer bound to the drug with respect to free dendrimer, following a process similar to that used in the tests to determine the dendrimer-drug bond, although introducing a stage of variation of pH in the complex formation process of prior to electrophoresis, process that was performed in the following way: • Complex formation: It was performed in a final mixture volume of 30 μl, which is the maximum volume for loading in the gel. To do this, we started from the necessary quantity of dendrimer which provides a band perfectly identifiable by staining with silver nitrate in the gel once the electrophoresis has been performed: 20 μl of a 100 μM solution, which correspond to 1.2×10^15 molecules. […] An incubation was performed of the dendrimer and drug mixtures at 37° C. during 1 hour to give time for a more thermodynamically stable complex to form, although more time may be needed for its formation. For each pH to test, 2 mixtures were incubated. […]

U87-MG cells = experiment: Transfection of U87-MG cells mediated by dendrimers (flow cytometry); type: cell-based; settings: dendriplex with anti-rev oligonucleotide 250 nM, − charge/+ charge ratio 1:8, 24 hours
Experimental: 100000 cells/well were plated of the corresponding cell line in a 24-well plate with 500 μl of medium.
Dendriplexes were formed with dendrimers NN and NN16 and the fluorescent anti-rev antisense oligonucleotide in a total volume of 75 μl of medium without serum, wherein the anti-rev oligonucleotide was mixed at a concentration 250 nM and the corresponding dendrimer in different proportions, so that different − charge/+ charge ratios were obtained: 1:1, 1:2, 1:4 and 1:8. The mixture was incubated during half an hour at ambient temperature and then it was added to the corresponding well to incubate the cells with dendriplexes.
After 24 hours of incubation, the cells were removed from the well, they were washed twice with PBS, they were incubated for 1 minute with acid glycine to remove the possible moieties of dendriplexes which may have remained adhered on the cell membrane, and a final wash was performed with PBS. Finally, the cells were resuspended in 500 μl of PBS and the quantity of fluorescent oligonucleotide inside the cell was quantified by flow cytometry.

HIVNL4.3 = experiment: HIV inhibition test in PBMC; type: cell-based; settings: NN 1, 3 and 5 μM before or after infection, 0.4 MOI, 24 h
Experimental: The HIVNL4.3 virus strain was then added at a concentration of 1 particle per cell (1 MOI). The MT-2 and the virus were cultured during at least 2 hours at 37° C., stirring the culture every 15-30 minutes. Finally, the cultures (cells-virus) were washed twice to remove the virus which had not integrated in the cell genome. The cells were transferred and cultured in 25 cm^2 bottles in the same culture medium. […] All of them were placed in octuplicate and were maintained at 37° C. in CO2 atmosphere during a week. After this time, the titering was read by display of the cytopathic effect and […] formation. The titering was calculated by applying Spearman-Karber's formula^[30], which serves to quantify the number of particles of virus per ml of medium in a culture in which serial dilutions of the concentrate of virus to titer have been seeded in octuplicate. The PBMC were stimulated during 48 hours with 2 μg/ml of PHA and 100 IU of IL-2, to provoke a polyclonal activation; after 24 hours the cells were washed with PBS. […] The cultures were incubated at 37° C. and they were maintained in a humidified atmosphere with 5% CO2. […] To eliminate the influence of the possible toxicity of the dendrimer on the number of cells and the quantity of viral copies, the number of virus copies was adjusted to the percentage of live cells to be able to make comparisons between different dendrimer concentrations. […]

ODN TAR = experiment: Stability of the NN-ODN dendriplex in complete medium with 10% foetal calf serum; settings: TAR+NN 2/1, complete medium with 10% FCS
Experimental: With the intention of seeing the stability of the dendriplexes in the presence of serum over time, a test was performed wherein to the samples was added complete medium which contained 10% foetal calf serum (FCS). The following samples were prepared with TAR as ODN:
As indicated, 20′ after its preparation 100 μl of complete medium were added to samples 1, 2 and 3. From each one of the samples 45 μl aliquots were taken after 40 minutes, 4 hours and 17 hours and they were subjected to electrophoresis in agarose gel. The samples were loaded in the gel following the ordering of its numbering from left to right, having previously situated a 100 bp ladder marker. In the last point (17 hours), only the 2/1 ratio complex was tested against ODN without NN. The results are shown in FIG. 7, wherein there appears a date on each one of the wells corresponding to samples with TAR+NN in 2/1 ratio.

T1 sequence (P01308 25-54 limits assumed): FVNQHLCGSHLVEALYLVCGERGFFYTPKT
T1 sequence (P01308 90-110 limits assumed): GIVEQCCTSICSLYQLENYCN

Row | Compound | pH stability of dendrimer-insulin complex [1] | percentage of cells transfected (U87-MG cells) [%] | infection of PBMC by HIV (HIV DNA copies/10^6 cells adjusted to % live cells) (HIVNL4.3) | time after which the NN dendrimer releases the ODN (ODN TAR) [h]
1 | C[N+](C)(C)CCO[Si](C)(CCC[Si](C)(CCC[Si](CCC[Si](C)(CCC[Si](C)(OCC[N+](C)(C)C)OCC[N+](C)(C)C)CCC[Si](C)(OCC[N+](C)(C)C)OCC[N+](C)(C)C)(CCC[Si](C)(CCC[Si](C)(OCC[N+](C)(C)C)OCC[N+](C)(C)C)CCC[Si](C)(OCC[N+](C)(C)C)OCC[N+](C)(C)C)CCC[Si](C)(CCC[Si](C)(OCC[N+](C)(C)C)OCC[N+](C)(C)C)CCC[Si](C)(OCC[N+](C)(C)C)OCC[N+](C)(C)C)CCC[Si](C)(OCC[N+](C)(C)C)OCC[N+](C)(C)C)OCC[N+](C)(C)C.[I-].[I-].[I-].[I-].[I-].[I-].[I-].[I-].[I-].[I-].[I-].[I-].[I-].[I-].[I-].[I-] [IM16, 2G-[Si(OCH2CH2NMe3^+I^−)2]8] | dissociated at acid pH | – | – | –
2 | CN(CCO[Si](C)(C)CCC[Si](C)(CCC[Si](CCC[Si](C)(CCC[Si](C)(C)OCCN(C)CC[N+](C)(C)C)CCC[Si](C)(C)OCCN(C)CC[N+](C)(C)C)(CCC[Si](C)(CCC[Si](C)(C)OCCN(C)CC[N+](C)(C)C)CCC[Si](C)(C)OCCN(C)CC[N+](C)(C)C)CCC[Si](C)(CCC[Si](C)(C)OCCN(C)CC[N+](C)(C)C)CCC[Si](C)(C)OCCN(C)CC[N+](C)(C)C)CCC[Si](C)(C)OCCN(C)CC[N+](C)(C)C)CC[N+](C)(C)C.[I-].[I-].[I-].[I-].[I-].[I-].[I-].[I-] [NN, 2G-[Si(O(CH2)2N(Me)(CH2)2NMe3^+I^−)]8] | – | 95 | good capacity for preventing the infection of lymphocytes by the HIV virus | 17

Source: patent US8603493B2, “Carbosilane dendrimers, preparation method thereof and use of same” (Dendrico, S.L., priority 2005, dated 2013)
